Data reported in the supplement of paper PMC10307832.

Key:
Assay in all cases: relative viability (nuclei count vs DMSO), 5 days (fraction); higher = more cells survive
LCLC-103H = test system: LCLC-103H
In short: (§1)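 Relative viability divides the nuclei count in treated wells by that in vehicle wells. Lung cancer cell lines were seeded in 1536-well plates, dosed by pin tool the next day, and fixed and stained after 5 days in one step with final 0.05% Triton X-100, 1% formaldehyde and 1 ug/ml Hoechst. Dosing was a single drug or a fixed anchor-drug dose plus five library-drug doses (not always all listed) in √10 steps, and values are medians of duplicate plates imaged at 4×.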

LXF-289 = test system: LXF-289
In short: as §1

NCI-H1355 = test system: NCI-H1355
In short: as §1

NCI-H1563 = test system: NCI-H1563
In short: as §1

NCI-H1651 = test system: NCI-H1651
In short: as §1

NCI-H1755 = test system: NCI-H1755
In short: as §1

NCI-H1792 = test system: NCI-H1792
In short: as §1

NCI-H1915 = test system: NCI-H1915
In short: as §1

NCI-H2347 = test system: NCI-H2347
In short: as §1

NCI-H3122 = test system: NCI-H3122
In short: as §1

NCI-H322M = test system: NCI-H322M
In short: as §1

NCI-H441 = test system: NCI-H441
In short: as §1

NCI-H460 = test system: NCI-H460
In short: as §1

NCI-H520 = test system: NCI-H520
In short: as §1

NCI-H522 = test system: NCI-H522
In short: as §1

NCI-H596 = test system: NCI-H596
In short: as §1

NCI-H661 = test system: NCI-H661
In short: as §1

NCI-H727 = test system: NCI-H727
In short: as §1

PC-14 = test system: PC-14
In short: as §1

RERF-LC-KJ = test system: RERF-LC-KJ
In short: as §1

SK-MES-1 = test system: SK-MES-1
In short: as §1

SW 900 = test system: SW 900
In short: as §1

## Nc1ccn([C@@H]2O[C@H](CO)[C@@H](O)[C@@H]2O)c(=O)n1 [Cytarabine] + Cc1nc(Nc2ncc(C(=O)Nc3c(C)cccc3Cl)s2)cc(N2CCN(CCO)CC2)n1 [Dasatinib] (partner 0.075 µM)
LCLC-103H; first compound 0.005 µM
  relative viability: 0.449
LCLC-103H; first compound 0.01581 µM
  relative viability: 0.507
LCLC-103H; first compound 0.05 µM
  relative viability: 0.486
LCLC-103H; first compound 0.1581 µM
  relative viability: 0.353
LCLC-103H; first compound 0.5 µM
  relative viability: 0.445
LXF-289; first compound 0.005 µM
  relative viability: 0.221
LXF-289; first compound 0.01581 µM
  relative viability: 0.202
LXF-289; first compound 0.05 µM
  relative viability: 0.171
LXF-289; first compound 0.1581 µM
  relative viability: 0.112
LXF-289; first compound 0.5 µM
  relative viability: 0.0684
NCI-H1355; first compound 0.005 µM
  relative viability: 0.641
NCI-H1355; first compound 0.01581 µM
  relative viability: 0.672
NCI-H1355; first compound 0.05 µM
  relative viability: 0.486
NCI-H1355; first compound 0.1581 µM
  relative viability: 0.352
NCI-H1355; first compound 0.5 µM
  relative viability: 0.369
NCI-H1563; first compound 0.005 µM
  relative viability: 0.506
NCI-H1563; first compound 0.01581 µM
  relative viability: 0.466
NCI-H1563; first compound 0.05 µM
  relative viability: 0.46
NCI-H1563; first compound 0.1581 µM
  relative viability: 0.383
NCI-H1563; first compound 0.5 µM
  relative viability: 0.393
NCI-H1651; first compound 0.005 µM
  relative viability: 0.406
NCI-H1651; first compound 0.01581 µM
  relative viability: 0.457
NCI-H1651; first compound 0.05 µM
  relative viability: 0.397
NCI-H1651; first compound 0.1581 µM
  relative viability: 0.179
NCI-H1651; first compound 0.5 µM
  relative viability: 0.205
NCI-H1755; first compound 0.005 µM
  relative viability: 0.439
NCI-H1755; first compound 0.01581 µM
  relative viability: 0.316
NCI-H1755; first compound 0.05 µM
  relative viability: 0.372
NCI-H1755; first compound 0.1581 µM
  relative viability: 0.257
NCI-H1755; first compound 0.5 µM
  relative viability: 0.222
NCI-H1792; first compound 0.005 µM
  relative viability: 1.34
NCI-H1792; first compound 0.01581 µM
  relative viability: 0.657
NCI-H1792; first compound 0.05 µM
  relative viability: 0.603
NCI-H1792; first compound 0.1581 µM
  relative viability: 0.503
NCI-H1792; first compound 0.5 µM
  relative viability: 0.355
NCI-H1915; first compound 0.005 µM
  relative viability: 0.366
NCI-H1915; first compound 0.01581 µM
  relative viability: 0.29
NCI-H1915; first compound 0.05 µM
  relative viability: 0.273
NCI-H1915; first compound 0.1581 µM
  relative viability: 0.183
NCI-H1915; first compound 0.5 µM
  relative viability: 0.181
NCI-H2347; first compound 0.005 µM
  relative viability: 0.321
NCI-H2347; first compound 0.01581 µM
  relative viability: 0.307
NCI-H2347; first compound 0.05 µM
  relative viability: 0.241
NCI-H2347; first compound 0.1581 µM
  relative viability: 0.274
NCI-H2347; first compound 0.5 µM
  relative viability: 0.201
NCI-H3122; first compound 0.005 µM
  relative viability: 0.807
NCI-H3122; first compound 0.01581 µM
  relative viability: 0.76
NCI-H3122; first compound 0.05 µM
  relative viability: 0.789
NCI-H3122; first compound 0.1581 µM
  relative viability: 0.349
NCI-H3122; first compound 0.5 µM
  relative viability: 0.17
NCI-H322M; first compound 0.005 µM
  relative viability: 0.259
NCI-H322M; first compound 0.01581 µM
  relative viability: 0.272
NCI-H322M; first compound 0.05 µM
  relative viability: 0.26
NCI-H322M; first compound 0.1581 µM
  relative viability: 0.243
NCI-H322M; first compound 0.5 µM
  relative viability: 0.274
NCI-H441; first compound 0.005 µM
  relative viability: 0.545
NCI-H441; first compound 0.01581 µM
  relative viability: 0.533
NCI-H441; first compound 0.05 µM
  relative viability: 0.485
NCI-H441; first compound 0.1581 µM
  relative viability: 0.324
NCI-H441; first compound 0.5 µM
  relative viability: 0.293
NCI-H460; first compound 0.005 µM
  relative viability: 0.394
NCI-H460; first compound 0.01581 µM
  relative viability: 0.259
NCI-H460; first compound 0.05 µM
  relative viability: 0.105
NCI-H460; first compound 0.1581 µM
  relative viability: 0.0311
NCI-H460; first compound 0.5 µM
  relative viability: 0.0213
NCI-H520; first compound 0.005 µM
  relative viability: 0.218
NCI-H520; first compound 0.01581 µM
  relative viability: 0.199
NCI-H520; first compound 0.05 µM
  relative viability: 0.263
NCI-H520; first compound 0.1581 µM
  relative viability: 0.187
NCI-H520; first compound 0.5 µM
  relative viability: 0.142
NCI-H522; first compound 0.005 µM
  relative viability: 0.935
NCI-H522; first compound 0.01581 µM
  relative viability: 0.802
NCI-H522; first compound 0.05 µM
  relative viability: 0.769
NCI-H522; first compound 0.1581 µM
  relative viability: 0.562
NCI-H522; first compound 0.5 µM
  relative viability: 0.55
NCI-H596; first compound 0.005 µM
  relative viability: 0.606
NCI-H596; first compound 0.01581 µM
  relative viability: 0.477
NCI-H596; first compound 0.05 µM
  relative viability: 0.601
NCI-H596; first compound 0.1581 µM
  relative viability: 0.48
NCI-H596; first compound 0.5 µM
  relative viability: 0.427
NCI-H661; first compound 0.005 µM
  relative viability: 0.636
NCI-H661; first compound 0.01581 µM
  relative viability: 0.529
NCI-H661; first compound 0.05 µM
  relative viability: 0.516
NCI-H661; first compound 0.1581 µM
  relative viability: 0.358
NCI-H661; first compound 0.5 µM
  relative viability: 0.283
NCI-H727; first compound 0.005 µM
  relative viability: 0.319
NCI-H727; first compound 0.01581 µM
  relative viability: 0.303
NCI-H727; first compound 0.05 µM
  relative viability: 0.447
NCI-H727; first compound 0.1581 µM
  relative viability: 0.271
NCI-H727; first compound 0.5 µM
  relative viability: 0.294
PC-14; first compound 0.005 µM
  relative viability: 0.232
PC-14; first compound 0.01581 µM
  relative viability: 0.234
PC-14; first compound 0.05 µM
  relative viability: 0.18
PC-14; first compound 0.1581 µM
  relative viability: 0.0381
PC-14; first compound 0.5 µM
  relative viability: 0.0648
RERF-LC-KJ; first compound 0.005 µM
  relative viability: 0.689
RERF-LC-KJ; first compound 0.01581 µM
  relative viability: 0.646
RERF-LC-KJ; first compound 0.05 µM
  relative viability: 0.524
RERF-LC-KJ; first compound 0.1581 µM
  relative viability: 0.409
RERF-LC-KJ; first compound 0.5 µM
  relative viability: 0.281
SK-MES-1; first compound 0.005 µM
  relative viability: 0.213
SK-MES-1; first compound 0.01581 µM
  relative viability: 0.174
SK-MES-1; first compound 0.05 µM
  relative viability: 0.127
SK-MES-1; first compound 0.1581 µM
  relative viability: 0.117
SK-MES-1; first compound 0.5 µM
  relative viability: 0.113
SW 900; first compound 0.005 µM
  relative viability: 0.837
SW 900; first compound 0.01581 µM
  relative viability: 0.446
SW 900; first compound 0.05 µM
  relative viability: 0.314
